Measured values as given in US8101632B2, “5-furopyridinone substituted indazoles” (Albany Molecular Research, Inc., priority 2007, dated 2012).
Where a name gives a salt, the structure may show the parent alone.

Row | Structure (SMILES) | melting point
1 | O=c1c2cc(-c3ccccn3)oc2ccn1-c1ccc2c(cnn2CCN2CCCC2)c1 (as salt: hydrochloride) | 50 to 52 °C
2 | Cl.O=c1c2cc(-c3ccc(Cl)cc3F)oc2ccn1-c1ccc2c(cnn2CCN2CCCC2)c1 | 256 to 258 °C
3 | Cl.O=c1c2cc(-c3ccc(F)cc3Cl)oc2ccn1-c1ccc2c(cnn2CCN2CCCC2)c1 | 140 to 142 °C
4 | Cl.O=c1c2cc(-c3ccccc3Cl)oc2ccn1-c1ccc2c(cnn2CCN2CCCC2)c1 | 102 to 104 °C
5 | O=c1c2cc(-c3ccc(Cl)cn3)oc2ccn1-c1ccc2c(cnn2CCN2CCCC2)c1 (as salt: hydrochloride) [Example 17, 2-(5-Chloropyridin-2-yl)-5-(1-(2-(pyrrolidin-1-yl)ethyl)-1H-indazol-5-yl)furo[3,2-c]pyridin-4(5H)-one dihydrochloride] | 268 to 270 °C
6 | COc1cc(Cl)ccc1-c1cc2c(=O)n(-c3ccc4c(cnn4CCN4CCCC4)c3)ccc2o1.Cl | 240 to 242 °C
7 | Cl.O=c1c2cc(-c3ccc(C(F)(F)F)cc3)oc2ccn1-c1ccc2c(cnn2CCN2CCCC2)c1 | 252 to 254 °C
8 | Cl.O=c1c2cc(-c3ccc(F)cc3)oc2ccn1-c1ccc2c(cnn2CCN2CCCC2)c1 | 218 to 220 °C
9 | Cl.O=c1c2cc(-c3ccc(F)cc3F)oc2ccn1-c1ccc2c(cnn2CCN2CCCC2)c1 | 256 to 258 °C
10 | O=c1c2cc(-c3ncccn3)oc2ccn1-c1ccc2c(cnn2CCN2CCCC2)c1 (as salt: hydrochloride) [Example 26, 2-(Pyrimidin-2-yl)-5-(1-(2-(pyrrolidin-1-yl)ethyl)-1H-indazol-5-yl)furo[3,2-c]pyridin-4(5H)-one Dihydrochloride] | 272 to 274 °C
11 | O=c1c2cc(-c3cccnc3)oc2ccn1-c1ccc2c(cnn2CCN2CCCC2)c1 (as salt: hydrochloride) [Example 22, 2(Pyridin-3-yl)-5-(1-(2-(pyrrolidin-1-yl)ethyl)-1H-indazol-5-yl)furo[3,2-c]pyridin-4(5H)-one dihydrochloride] | 188 to 190 °C
12 | Cc1ccc(-c2cc3c(=O)n(-c4ccc5c(cnn5CCN5CCCC5)c4)ccc3o2)nn1.Cl | 282 to 284 °C
13 | Cl.N#Cc1cc(F)ccc1-c1cc2c(=O)n(-c3ccc4c(cnn4CCN4CCCC4)c3)ccc2o1 | 120 to 122 °C
14 | Cl.O=c1c2cc(-c3ccc(Cl)cc3)oc2ccn1-c1ccc2c(cnn2CCN2CCNCC2)c1 | 298 to 300 °C (dec.)
15 | Cc1ccc(-c2cc3c(=O)n(-c4ccc5c(cnn5CCN5CCCC5)c4)ccc3o2)c(F)c1.Cl | 268 to 270 °C
16 | O=c1c2cc(-c3ccc(F)cn3)oc2ccn1-c1ccc2c(cnn2CCN2CCCC2)c1 (as salt: hydrochloride) [Example 23, 2-(5-Fluoropyridin-2-yl)-5-(1-(2-(pyrrolidin-1-yl)ethyl)-1H-indazol-5-yl)furo[3,2-c]pyridin-4(5H)-one dihydrochloride] | 266 to 268 °C
17 | Cl.O=c1c2cc(-c3ccc(Cl)cc3)oc2ccn1-c1ccc2c(cnn2CCN2CC[C@@H](O)C2)c1 | 242 to 246 °C (dec.)
18 | Cl.O=c1c2cc(-c3ccc(Cl)cc3)oc2ccn1-c1ccc2c(cnn2CCN2CCOCC2)c1 | 260 to 268 °C (dec.)
19 | Cl.O=c1c2cc(-c3ccccc3F)oc2ccn1-c1ccc2c(cnn2CCN2CCCC2)c1 | 264 to 266 °C
20 | Cc1ccc(-c2cc3c(=O)n(-c4ccc5c(cnn5CCN5CCCC5)c4)ccc3o2)cc1.Cl | 262 to 264 °C
21 | Cl.O=c1c2cc(-c3ccc(Cl)cc3Cl)oc2ccn1-c1ccc2c(cnn2CCN2CCCC2)c1 | 258 to 260 °C
